In patent US20260062426A1, “CYCLIN DEPENDENT KINASE DEGRADERS AND METHODS OF USE THEREOF” (Differentiated Therapeutics Inc, priority 2023, published 2026):

Tests used:
Type in all cases: cell-based
CCNE1 = target: T1, CCNE1 (Homo sapiens, UniProt P24864+P24941); test: CCNE1 HIBIT PQ (protein quantification), degradation; conditions: for CCNE1 HIBIT PQ Max (%): Max = Maximum; for DC50: PQ = Protein Quantification
T1 construct: host or cells: HEK293
How it was run: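 HEK293 cells carrying HiBiT-tagged CCNE1 were grown in EMEM with 10% FBS and seeded in 384-well plates at 1.6×10⁵ cells/well in 50 uL, then incubated overnight at 37° C and 5% CO₂. Compound treatment lasted 6 hours, and CCNE1 protein was then measured with a HiBiT assay. High control was 0.1% DMSO-treated cells and low control was culture medium only. Maximal degradation and DC50 were derived from these readings.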

CDK9 = target: T2, CDK9 (Homo sapiens, UniProt P50750); test: CDK9 HIBIT PQ (protein quantification), degradation; conditions: for Dmax: Max = Maximum
T2 construct: host or cells: HEK293
T2 sequence (P50750 whole entry): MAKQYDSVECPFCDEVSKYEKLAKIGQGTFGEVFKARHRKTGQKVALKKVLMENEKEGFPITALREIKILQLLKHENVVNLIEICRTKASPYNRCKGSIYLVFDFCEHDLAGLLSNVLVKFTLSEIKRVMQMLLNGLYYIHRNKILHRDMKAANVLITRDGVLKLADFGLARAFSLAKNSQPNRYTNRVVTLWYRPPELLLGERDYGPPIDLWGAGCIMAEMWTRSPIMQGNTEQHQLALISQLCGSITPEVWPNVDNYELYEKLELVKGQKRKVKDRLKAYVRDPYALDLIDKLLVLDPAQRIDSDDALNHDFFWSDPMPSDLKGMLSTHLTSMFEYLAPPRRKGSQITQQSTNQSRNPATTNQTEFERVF
How it was run: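 In 384-well plates, HEK293 cells with HiBiT-tagged CDK9, grown in DMEM with 10% FBS, were seeded at 1.6×10^5 cells/well in 50 uL and kept overnight at 37° C and 5% CO2. After compound treatment, a HiBiT assay quantified CDK9 protein against a high control of 0.1% DMSO-treated cells and a low control of culture medium only. Maximal degradation, Dmax and DC50 were derived from the resulting signal.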

CDK2 = target: T3, CDK2 (Homo sapiens, UniProt P24941); test: CDK2 HIBIT PQ (protein quantification), degradation; conditions: for CDK2 HIBIT PQ Max (%): Max = Maximum; for DC50: PQ = Protein Quantification
T3 construct: host or cells: HEK293
How it was run: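 HEK293 cells carrying HiBiT-tagged CDK2 were grown in DMEM with 10% FBS and seeded in 384-well plates at 1.6×10^5 cells/well in 50 uL, then incubated overnight at 37° C and 5% CO2. After 6 hours of compound treatment, 20 μL of HiBiT reagent (Nano-Glo HiBiT lytic buffer, lytic substrate, LgBiT protein) was added and plates were shaken for 20 minutes at room temperature before an EnVision reading. High control was 0.1% DMSO and low control was medium only. Maximal degradation and DC50 were derived from these readings.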

| SMILES | CCNE1 HIBIT PQ Max (%) (CCNE1) | DC50 (CCNE1) | Dmax (CDK9) | CDK2 HIBIT PQ Max (%) (CDK2) | DC50 (CDK2) | DC50 (CDK9; PQ = Protein Quantification) |
| --- | --- | --- | --- | --- | --- | --- |
| CC(C)Oc1c(-c2cn[nH]c2)ncn2nc(Nc3ccc(S(=O)(=O)c4cccc(C[C@H]5C[C@H](c6ccc7c(c6)CN([C@@H]6CCC(=O)NC6=O)C7=O)C5)c4)cc3F)nc12 (stereo in doubt) [Compound 80, (R)-3-(5-((1s,3R)-3-(3-((3-fluoro-4-((8-isopropoxy-7-(1H-pyrazol-4-yl)-[1,2,4]triazolo[1,5-c]pyrimidin-2-yl)amino)phenyl)sulfonyl)benzyl)cyclobutyl)-1-oxoisoindolin-2-yl)piperidine-2,6-dione] | 85% | 20.3 nM | 49% | 98% | 3.9 nM |  |
| CC(C)Oc1c(-c2cn[nH]c2)ncn2nc(Nc3ccc(S(=O)(=O)c4cccc(CN5CCN(c6ccc7c(N8CCC(=O)NC8=O)nn(C)c7c6)CC5(C)C)c4)cc3F)nc12 [Compound 47] | 72% | 55 nM | 74% | 97% | 6.2 nM | 136 nM |
| CC(C)Oc1c(-c2cn[nH]c2)ncn2nc(Nc3ccc(S(=O)(=O)c4cccc(CN5CCC(c6cccc7c(N8CCC(=O)NC8=O)nn(C)c67)CC5)c4)cc3F)nc12 [Compound 26] | 51% | 2.4 nM | 13% | 84% | 3.8 nM |  |
| CC(C)Oc1c(-c2cn[nH]c2)ncn2nc(Nc3ccc(S(=O)(=O)c4cccc(CC5CC(c6ccc7c(c6)CN(C6CCC(=O)NC6=O)C7=O)C5)c4)cc3F)nc12 (stereo not drawn) [Compound 77, 3-(5-(3-(3-((3-fluoro-4-((8-isopropoxy-7-(1H-pyrazol-4-yl)-[1,2,4]triazolo[1,5-c]pyrimidin-2-yl)amino)phenyl)sulfonyl)benzyl)cyclobutyl)-1-oxoisoindolin-2-yl)piperidine-2,6-dione] | 82% | 34.4 nM | 37% | 95% | 12.4 nM |  |
